Test results from patent US20210205223A1, “PROPELLANT-FREE FORMULATION FOR INHALATION” (priority 2020, published 2021).
Counter-ions that a name gives are not always drawn.

Conditions: solution of sample 1 from soft mist inhaler; ACI 28.3 L/minute, ambient temperature, RH 90%
Protocol: The aerodynamic particle size distribution was determined using an Andersen Scale Impactor (ACI). The soft mist inhaler was held close to the ACI inlet until no aerosol was visible. The flow rate of the ACI was set to 28.3 L/minute and was operated under ambient temperature and a relative humidity (RH) of 90%.
Fractions of the dose were deposited at different stages of the ACI, in accordance with the particle size of the fraction. Each fraction was washed from the stage and analyzed using HPLC.
The particle size distribution was expressed in terms of mass median aerodynamic diameter (MMAD) and Geometric Standard Deviation (GSD).

Row | Compound | MMAD (mass median aerodynamic diameter) [μm]
1 | COc1ccc(CC(C)NCC(O)c2ccc(O)c(NC=O)c2)cc1 (centres unmarked) [Formoterol fumarate, N-[2-hydroxy-5-(1-hydroxy-2-((2-(4-methoxyphenyl)-1-methylethy-1)amino)-ethyl)phenyl] formamide] | 4.49
2 | C[N+]1(C)CCC(OC(=O)C(O)(c2ccccc2)C2CCCC2)C1.[Br-] (centres unmarked) [Glycopyrronium bromide] | 4.91
